Several values for one entry are separate records, joined by “and”; a condition that tells them apart may be missing. Equal entries are not always repeated.
Assays:
[1] = system: L-929 (ATCC cell lines CCL-1, NCTC clone 929) Mus musculus mouse fibroblast cells; assay: In-vitro cytotoxicity test by extraction method; assay type: cell-based; conditions: extract in contact with L-929 cells for 48 hours
Experimental: In-vitro assessment was done to check the cytotoxic or necrotic potential of the 42-O-(tetrahydrofuran-3-yl) rapamycin and 42-O-(oxetan-3-yl) rapamycin compounds by extraction method. In this study extracts of test substance were kept in contact with a multiple culture of L-929 (ATCC cell lines CCL-1, NCTC clone 929) Mus musculus mouse fibroblast cells for 48 hours. The cells were examined microscopically to assess the changes for its general morphology, vacuolization, detachment, cell lysis and membrane integrity.

rabbit blood [2] = assay: Haemocompatibility test (thrombosis, coagulation, platelet count, leucocyte count); assay type: cell-based
Experimental: Haemocompatibility test is conducted to evaluate biological safety of the blood contacting 42-O-([…]) rapamycin and 42-O-(oxetan-3-yl) rapamycin compounds for the medical device. The interaction of test substance with rabbit blood was checked for thrombosis, coagulation, platelet count and leucocyte count.

[3] = Stability analysis (HPLC purity on storage) without BHT at various temperatures; assay type: physicochemical; conditions: for Purity (%): without BHT
Experimental: (§1) To check the purity of the 42-O-(heteroalkoxyalkyl) rapamycin compounds the following condition was followed by using High Performance Liquid Chromatography, Phenomenex Synergi Hydro-RP 80a (250×4.6 ) mm, 4 micron column. The mobile phase was 65:15:20 methanol:acetonitile:water mixture. The detector was set at 276 nm and the flow rate was adjusted to 1.5 mL/min. Column temperature was 40° C. 2.0 μg of 42-O-(heteroalkoxyalkyl) rapamycin compounds was injected onto the column in a volume of 5.0 μL methanol with run time of 50 min.
The purity loss was higher at increased temperature, but there was no apparent change in the impurity profile. Table 2A presents the purity of various 42-O-(heteroalkoxyalkyl) rapamycin compounds at different time intervals and temperature conditions.

rabbit blood [4] = assay: In-vitro haemolysis test; assay type: cell-based; conditions: for Haemolytic Index, Mean ± S. D.: mean of three test extracts, rabbit blood, 4 hrs
Experimental: Haemolysis test was conducted on rabbit blood by in-vitro method to check the haemolytic effect of 42-O-(tetrahydrofuran-3-yl) rapamycin (Merilimus-1) compound and 42-O-(oxetan-3-yl) rapamycin (Merilimus-2) compound. In this study the extracts of the test substances in triplicate were kept in contact with rabbit blood and incubated for 4 hrs. The concentration of plasma haemoglobin liberated in supernatant was calculated by comparing with absorbance of the standard solution in a spectrophotometer at 540 nm.

[5] = Stability analysis (HPLC purity on storage) with various concentrations of BHT at 40° C.; assay type: physicochemical; conditions: sealed container
Experimental: as §1
The inventors have also conducted the stability study of various 42-O-(heteroalkoxyalkyl) rapamycin compounds as mentioned above using various BHT concentrations. The study was conducted at 40° C. temperature in sealed container for 8 weeks.
42-O-(heteroalkoxyalkyl) rapamycin compounds obtained as per procedure described in Example 1 are respectively added with anti-oxidant, namely Butylated Hydroxytoluene (or BHT), at a concentration of 0.1%, 0.2%, 0.5%, and 1.0% (w/w) based on 100% (w/w) of 42-O-(heteroalkoxyalkyl) rapamycin compounds in sealed container to study the stability at 40° C. temperature. […] The purity data with the addition of different amounts of anti-oxidant as added to 42-O-(tetrahydrofuran-3-yl) rapamycin compound, 42-O-(oxetan-3-yl) rapamycin compound and 42-O-(tetrahydropyran-3-yl) rapamycin compound checked at different time intervals are summarized in Table 2B as below mentioned.

[6] = system: rabbit illiac artery smooth muscle cell cultures (RbIASMCs); assay: In-vitro anti-proliferative potency, BrdU assay, rabbit smooth muscle cells; assay type: cell-based; conditions: BrdU incorporation, over 5 orders of magnitude concentration, compared with rapamycin
From the text: (§2) In-vitro assessment of relative anti-proliferative effect of novel mTOR inhibitors 42-O-(oxetan-3-yl) rapamycin compound and 42-O-(tetrahydrofuran-3-yl) rapamycin compound with rapamycin was done on human and rabbit smooth muscle cell culture models. In which, human aorta and rabbit illiac artery smooth muscle cell cultures were subjected to increasing doses of 42-O-(oxetan-3-yl) rapamycin compound 42-O-(tetrahydrofuran-3-yl) rapamycin compound and rapamycin over 5 orders of magnitude concentration in the cell culture medium. The ability of the cell culture to reproduce was assessed after drug exposure by addition of a BromodeoxyUridine (BrdU) coloured reagent which causes a colour change in the surviving cells. The extent of colour development was quantified at 450 nm wavelength using a spectrophotometer microplate reader (BMG Labtech, FLUOstar OPTIMA). […] On the contrary, lower OD values reflect less incorporation on BrdU and a shift towards cell inhibition. Growth inhibition was calculated by subtracting positive control OD values, which represent 100% uninhibited growth.

[7] = system: human aorta smooth muscle cell cultures (hAoSMCs); assay: In-vitro anti-proliferative potency, BrdU assay, human smooth muscle cells; assay type: cell-based; conditions: BrdU incorporation, over 5 orders of magnitude concentration, compared with rapamycin
From the text: as §2

[8] = test group, individual rabbits No. 1-3

Haemocompatibility (in words) (rabbit blood [2]; all haematological findings compared to control): haemocompatible
Coagulation (PTT in sec.) (rabbit blood [2]; [8]): 36 sec. (2×) and 38 sec.
Differential leucocyte count: Basophile % (rabbit blood [2]; [8]): 00%
Differential leucocyte count: Eosinophil % (rabbit blood [2]; [8]): 02% (2×) and 01%
Differential leucocyte count: Lymphocyte % (rabbit blood [2]; [8]): 44% and 50% and 49%
Differential leucocyte count: Monocyte % (rabbit blood [2]; [8]): 01%
Differential leucocyte count: Neutrophil % (rabbit blood [2]; [8]): 55% and 48% (2×)
Distribution of cells: Platelets (rabbit blood [2]; [8]): Normal
Distribution of cells: RBC (rabbit blood [2]; [8]): Normal
Distribution of cells: WBC (rabbit blood [2]; [8]): Normal
Platelet count (rabbit blood [2]; [8]): 4.9 lakhs/cmm and 4.5 lakhs/cmm (2×)
Thrombosis (rabbit blood [2]; [8]): Nil
Stability (in words) ([3]; purified compounds without anti-oxidant): more thermally stable
Purity (%) ([3]; 5° C. (sealed), 00 weeks after synthesis): 97.7%
Purity (%) ([3]; 5° C. (sealed), 02 weeks after synthesis): 96.5%
Purity (%) ([3]; 5° C. (sealed), 04 weeks after synthesis): 95.6%
Purity (%) ([3]; 5° C. (sealed), 08 weeks after synthesis): 94.8%
Purity (%) ([3]; 5° C. (sealed), 12 weeks after synthesis): 94.2%
Purity (%) ([3]; 25° C. (sealed), 00 weeks after synthesis): 97.6%
Purity (%) ([3]; 25° C. (sealed), 02 weeks after synthesis): 96.2%
Purity (%) ([3]; 25° C. (sealed), 04 weeks after synthesis): 95.1%
Purity (%) ([3]; 25° C. (sealed), 08 weeks after synthesis): 94.5%
Purity (%) ([3]; 25° C. (sealed), 12 weeks after synthesis): 93.9%
Purity (%) ([3]; 25° C. (unsealed), 00 weeks after synthesis): 97.3%
Purity (%) ([3]; 25° C. (unsealed), 02 weeks after synthesis): 95.9%
Purity (%) ([3]; 25° C. (unsealed), 04 weeks after synthesis): 94.8%
Purity (%) ([3]; 25° C. (unsealed), 08 weeks after synthesis): 94.0%
Purity (%) ([3]; 25° C. (unsealed), 12 weeks after synthesis): 93.6%
Purity (%) ([3]; 40° C. (sealed), 00 weeks after synthesis): 97.3%
Purity (%) ([3]; 40° C. (sealed), 02 weeks after synthesis): 95.5%
Purity (%) ([3]; 40° C. (sealed), 04 weeks after synthesis): 94.6%
Purity (%) ([3]; 40° C. (sealed), 08 weeks after synthesis): 93.6%
Purity (%) ([3]; 40° C. (sealed), 12 weeks after synthesis): 92.7%
Purity (%) ([5]; BHT 0.0% (w/w), 0 week): 97.3%
Purity (%) ([5]; BHT 0.0% (w/w), 2 weeks): 95.5%
Purity (%) ([5]; BHT 0.0% (w/w), 4 weeks): 94.6%
Purity (%) ([5]; BHT 0.0% (w/w), 8 weeks): 93.6%
Purity (%) ([5]; BHT 0.1% (w/w), 0 week): 97.7%
Purity (%) ([5]; BHT 0.1% (w/w), 2 weeks): 97.5%
Purity (%) ([5]; BHT 0.1% (w/w), 4 weeks): 97.5%
Purity (%) ([5]; BHT 0.1% (w/w), 8 weeks): 97.5%
Purity (%) ([5]; BHT 0.2% (w/w), 0 week): 97.6%
Purity (%) ([5]; BHT 0.2% (w/w), 2 weeks): 97.6%
Purity (%) ([5]; BHT 0.2% (w/w), 4 weeks): 97.5%
Purity (%) ([5]; BHT 0.2% (w/w), 8 weeks): 97.5%
Purity (%) ([5]; BHT 0.5% (w/w), 0 week): 97.6%
Purity (%) ([5]; BHT 0.5% (w/w), 2 weeks): 97.5%
Purity (%) ([5]; BHT 0.5% (w/w), 4 weeks): 97.4%
Purity (%) ([5]; BHT 0.5% (w/w), 8 weeks): 97.4%
Purity (%) ([5]; BHT 1.0% (w/w), 0 week): 97.6%
Purity (%) ([5]; BHT 1.0% (w/w), 2 weeks): 97.5%
Purity (%) ([5]; BHT 1.0% (w/w), 4 weeks): 97.4%
Purity (%) ([5]; BHT 1.0% (w/w), 8 weeks): 97.4%
Purity after eight-weeks of storage ([5]; with various concentrations of BHT (concentration not given)): 97.4%
SMILES: COC1CC(C[C@H](C)[C@@H]2CC(=O)[C@H](C)/C=C(\C)C(O)[C@@H](OC)C(=O)[C@H](C)C[C@H](C)/C=C/C=C/C=C(\C)[C@@H](OC)C[C@@H]3CC[C@@H](C)[C@@](O)(O3)C(=O)C(=O)N3CCCC[C@H]3C(=O)O2)CCC1OC1COC1 (some centres unmarked) [Merilimus-2, 42-O-(oxetan-3-yl) rapamycin]
Toxic effect on cells (in words) [1]: did not reveal any toxic effect on cells
Leucocyte count (rabbit blood [2]; [8]): 7.5 Thousand/cmm (2×) and 6.5 Thousand/cmm
Haemolytic Index (rabbit blood [4]; individual test extracts 1-3, rabbit blood, incubated 4 hrs, = Haemoglobin released/Haemoglobin present × 100): 1.9 (2×) and 2.0
Haemolytic Index, Mean ± S. D. (rabbit blood [4]): 1.9 ± 0.02
Haemolytic Index, Mean ± S. D. (rabbit blood [4]; listed as 42-O-(oxetan-3-yl) rapamycin): 1.9
Haemolytic nature (in words) (rabbit blood [4]; on the basis of haemolytic index): non-haemolytic
Growth suppression of smooth muscle cells (in words) [6]: more effectively inhibited growth of smooth muscle cells than rapamycin
Growth suppression of smooth muscle cells (in words) [7]: more effectively inhibited growth of smooth muscle cells than rapamycin

Source: patent publication US9321782B2, “Process for preparation of novel 42-O-(heteroalkoxyalkyl) rapamicin compounds with anti-proliferative properties” (MERIL LIFE SCIENCES PVT. LTD., priority 2010, dated 2016)
